Data reported in patent US6624160B2, “4-oxo-1,4-dihydro-3-cinnolinecarboxamides as antiviral agents” (Pharmacia & Upjohn Co., priority 2000, dated 2003).

Assays:
HCMV polymerase = molecular target: T1, HCMV polymerase (Human cytomegalovirus, UniProt P08546); test: HCMV polymerase assay (scintillation proximity assay, modified version); assay type: biochemical; settings: modified SPA assay; compounds diluted in 100% DMSO; 4.5 mM DTT
T1 construct: made in house; host or cells: recombinant baculovirus-infected SF-9 cells
T1 sequence (P08546 whole entry): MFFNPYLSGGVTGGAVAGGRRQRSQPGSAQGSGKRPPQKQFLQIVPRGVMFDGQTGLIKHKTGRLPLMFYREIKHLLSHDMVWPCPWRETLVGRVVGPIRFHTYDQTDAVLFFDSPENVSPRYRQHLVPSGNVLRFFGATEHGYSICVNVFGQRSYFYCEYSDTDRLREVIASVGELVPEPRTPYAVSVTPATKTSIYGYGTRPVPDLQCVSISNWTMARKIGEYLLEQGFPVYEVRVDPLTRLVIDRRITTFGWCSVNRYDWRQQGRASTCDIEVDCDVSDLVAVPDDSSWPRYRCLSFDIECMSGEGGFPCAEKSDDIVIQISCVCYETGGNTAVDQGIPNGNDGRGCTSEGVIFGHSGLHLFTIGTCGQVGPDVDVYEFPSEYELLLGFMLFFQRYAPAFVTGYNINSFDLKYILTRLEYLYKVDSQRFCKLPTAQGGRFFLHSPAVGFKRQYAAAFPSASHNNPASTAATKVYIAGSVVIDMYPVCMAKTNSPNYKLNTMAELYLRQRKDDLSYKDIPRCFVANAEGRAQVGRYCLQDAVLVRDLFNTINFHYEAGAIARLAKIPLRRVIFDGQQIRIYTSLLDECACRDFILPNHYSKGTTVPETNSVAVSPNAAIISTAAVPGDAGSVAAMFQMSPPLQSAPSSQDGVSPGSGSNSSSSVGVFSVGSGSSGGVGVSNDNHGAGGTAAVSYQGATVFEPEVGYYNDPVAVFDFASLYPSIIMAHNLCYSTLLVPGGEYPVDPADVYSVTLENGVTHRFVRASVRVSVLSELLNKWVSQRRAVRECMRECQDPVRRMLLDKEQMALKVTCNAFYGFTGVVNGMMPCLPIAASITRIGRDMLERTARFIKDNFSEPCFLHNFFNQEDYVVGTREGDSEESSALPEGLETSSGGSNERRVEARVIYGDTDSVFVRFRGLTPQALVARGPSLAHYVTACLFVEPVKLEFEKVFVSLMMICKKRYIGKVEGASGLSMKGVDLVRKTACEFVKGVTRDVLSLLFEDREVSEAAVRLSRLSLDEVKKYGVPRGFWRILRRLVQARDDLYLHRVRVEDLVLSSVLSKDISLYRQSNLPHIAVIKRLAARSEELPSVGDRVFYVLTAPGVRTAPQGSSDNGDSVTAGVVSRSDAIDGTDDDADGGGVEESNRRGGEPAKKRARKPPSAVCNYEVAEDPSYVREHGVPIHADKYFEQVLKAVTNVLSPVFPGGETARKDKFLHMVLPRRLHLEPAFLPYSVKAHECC
Protocol: The HCMV polymerase assay is performed using a scintillation proximity assay (SPA) as described in several references, such as N. D. Cook, et al., Pharmaceutical Manufacturing International, pages 49-53 (1992); K. Takeuchi, Laboratory Practice, September issue (1992); U.S. Pat. No. 4,568,649 (1986); which are incorporated by reference herein. Reactions are performed in 96-well plates. The assay is conducted in 100 μl volume with 5.4 mM HEPES (pH 7.5), 11.7 mM KCl, 4.5 mM MgCl2, 0.36 mg/ml BSA, and 90 nM ^3H-dTTP. Assays are run with and without CHAPS, (3-[(3-cholamidopropyl)-dimethylammonio]-1-propane-sulfonate) at a final concentration of 2 mM. HCMV polymerase is diluted in enzyme dilution buffer containing 50% glycerol, 250 mM NaCl, 10 mM HEPES (pH 7.5), 100 μg/ml BSA, and 0.01% sodium azide. The HCMV polymerase, which is expressed in recombinant baculovirus-infected SF-9 cells and purified according to literature procedures, is added at 10% (or 10 μl) of the final reaction volume, i.e., 100 μl. Compounds are diluted in 50% DMSO and 10 μl are added to each well. Control wells contain an equivalent concentration of DMSO. Unless noted otherwise, reactions are initiated via the addition of 6 nM biotinylated poly(dA)-oligo(dT) template/primer to reaction mixtures containing the enzyme, substrate, and compounds of interest. Plates are incubated in a 25° C. or 37° C. H2O bath and terminated via the addition of 40 μl/reaction of 0.5 M EDTA (pH 8) per well. Reactions are terminated within the time-frame during which substrate incorporation is linear and varied depending upon the enzyme and conditions used, i.e., 30 min. for HCMV polymerase. Ten μl of streptavidin-SPA beads (20 mg/ml in PBS/10% glycerol) are added following termination of the reaction. Plates are incubated 10 min. at 37° C., then equilibrated to room temperature, and counted on a Packard Topcount. Linear regressions are performed and IC50's are calculated using computer software.
A modified version of the above HCMV polymerase assay is performed as described above, but with the following changes: Compounds are diluted in 100% DMSO until final dilution into assay buffer. In the previous assay, compounds are diluted in 50% DMSO. 4.5 mM dithiotherotol (DTT) is added to the polymerase buffer. […] All results are listed as Polymerase IC50 (μM) values. In Table 1, the term “nd” refers to activity data not determined.

VZV polymerase = VZV polymerase (Varicella-zoster virus, UniProt P09252); test: VZV polymerase assay (Table 1); assay type: biochemical
Chain of VZV polymerase (P09252 whole entry): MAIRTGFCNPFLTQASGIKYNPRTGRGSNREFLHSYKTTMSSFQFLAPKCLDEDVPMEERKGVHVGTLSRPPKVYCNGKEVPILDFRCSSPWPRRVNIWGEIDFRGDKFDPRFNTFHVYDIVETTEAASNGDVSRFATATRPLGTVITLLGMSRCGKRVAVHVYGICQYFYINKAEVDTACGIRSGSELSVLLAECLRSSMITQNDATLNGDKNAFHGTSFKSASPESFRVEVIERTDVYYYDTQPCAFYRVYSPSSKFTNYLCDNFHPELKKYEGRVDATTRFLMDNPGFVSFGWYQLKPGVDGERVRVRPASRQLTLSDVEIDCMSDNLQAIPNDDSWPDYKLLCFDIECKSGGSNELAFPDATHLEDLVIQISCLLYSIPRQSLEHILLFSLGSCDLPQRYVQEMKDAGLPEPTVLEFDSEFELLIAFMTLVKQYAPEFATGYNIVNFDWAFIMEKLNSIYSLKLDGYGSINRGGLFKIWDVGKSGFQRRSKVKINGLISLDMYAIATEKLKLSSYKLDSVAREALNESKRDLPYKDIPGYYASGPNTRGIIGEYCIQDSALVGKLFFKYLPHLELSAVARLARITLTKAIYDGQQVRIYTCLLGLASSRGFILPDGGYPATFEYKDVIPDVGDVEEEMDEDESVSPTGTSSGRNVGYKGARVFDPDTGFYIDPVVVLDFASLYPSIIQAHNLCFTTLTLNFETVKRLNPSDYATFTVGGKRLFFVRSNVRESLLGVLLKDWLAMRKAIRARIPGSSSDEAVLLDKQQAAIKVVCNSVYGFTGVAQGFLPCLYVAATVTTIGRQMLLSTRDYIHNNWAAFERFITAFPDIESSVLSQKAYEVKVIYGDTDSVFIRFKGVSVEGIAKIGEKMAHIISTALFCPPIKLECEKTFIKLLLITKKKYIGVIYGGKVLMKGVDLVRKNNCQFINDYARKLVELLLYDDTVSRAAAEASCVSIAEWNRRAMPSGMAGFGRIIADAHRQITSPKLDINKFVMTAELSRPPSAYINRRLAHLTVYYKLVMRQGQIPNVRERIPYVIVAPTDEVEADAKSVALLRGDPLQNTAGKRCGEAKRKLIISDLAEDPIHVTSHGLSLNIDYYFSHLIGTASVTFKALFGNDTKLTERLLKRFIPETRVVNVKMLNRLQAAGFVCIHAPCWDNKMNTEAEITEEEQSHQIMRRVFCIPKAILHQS

HSV polymerase = HSV polymerase (Human herpesvirus 1, UniProt P04293); test: HSV polymerase assay (Table 1); assay type: biochemical
Chain of HSV polymerase (P04293 whole entry): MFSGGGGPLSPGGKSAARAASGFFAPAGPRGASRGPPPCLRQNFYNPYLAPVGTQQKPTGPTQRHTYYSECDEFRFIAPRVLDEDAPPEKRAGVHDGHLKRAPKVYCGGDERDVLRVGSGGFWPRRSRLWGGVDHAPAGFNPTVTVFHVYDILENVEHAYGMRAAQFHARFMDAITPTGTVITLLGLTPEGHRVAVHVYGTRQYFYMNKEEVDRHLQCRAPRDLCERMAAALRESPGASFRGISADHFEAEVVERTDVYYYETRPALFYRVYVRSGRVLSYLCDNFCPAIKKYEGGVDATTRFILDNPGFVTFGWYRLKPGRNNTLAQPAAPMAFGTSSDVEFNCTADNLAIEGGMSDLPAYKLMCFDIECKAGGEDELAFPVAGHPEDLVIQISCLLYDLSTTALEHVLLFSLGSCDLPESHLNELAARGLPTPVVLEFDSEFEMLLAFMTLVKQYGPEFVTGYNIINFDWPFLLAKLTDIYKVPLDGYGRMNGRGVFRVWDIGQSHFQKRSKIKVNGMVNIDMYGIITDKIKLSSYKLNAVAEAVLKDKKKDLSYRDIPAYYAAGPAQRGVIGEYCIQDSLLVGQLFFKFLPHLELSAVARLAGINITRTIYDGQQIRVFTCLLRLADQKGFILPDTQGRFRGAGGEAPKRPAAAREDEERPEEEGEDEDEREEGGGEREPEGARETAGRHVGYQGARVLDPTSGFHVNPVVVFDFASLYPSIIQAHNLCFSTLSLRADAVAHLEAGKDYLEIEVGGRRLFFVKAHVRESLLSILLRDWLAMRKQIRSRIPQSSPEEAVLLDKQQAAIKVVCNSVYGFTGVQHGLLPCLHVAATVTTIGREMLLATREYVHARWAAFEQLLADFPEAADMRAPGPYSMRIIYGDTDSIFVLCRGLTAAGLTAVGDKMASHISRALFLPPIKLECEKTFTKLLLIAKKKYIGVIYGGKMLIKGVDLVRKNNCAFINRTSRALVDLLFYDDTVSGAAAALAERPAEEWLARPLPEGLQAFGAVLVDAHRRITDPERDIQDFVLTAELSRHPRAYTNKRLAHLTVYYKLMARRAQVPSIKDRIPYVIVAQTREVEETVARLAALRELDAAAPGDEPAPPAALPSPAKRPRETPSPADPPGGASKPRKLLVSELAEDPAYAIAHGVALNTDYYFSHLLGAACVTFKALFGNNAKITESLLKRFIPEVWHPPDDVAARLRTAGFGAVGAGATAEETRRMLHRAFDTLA

Structure (SMILES) | melting point [°C] | IC50 (HCMV polymerase) [nM] | IC50 (VZV polymerase) [nM] | IC50 (HSV polymerase) [nM]
Cn1nc(C(=O)NCc2ccc(Cl)cc2)c(=O)c2cc(I)ccc21 [Example 1, N-(4-chlorobenzyl)-6-iodo-1-methyl-4-oxo-1,4-dihydro-3-cinnolinecarboxamide] | 194 to 195 | 5500 |  | 
Cn1nc(C(=O)NCc2ccc(Cl)cc2)c(=O)c2cc(C#CCO)ccc21 [Example 2, N-(4-chlorobenzyl)-6-(3-hydroxy-1-propynyl)-1-methyl-4-oxo-1,4-dihydro-3-cinnolinecarboxamide] | 229 to 231 | 2700 | 1100 | 1700
Cn1nc(C(=O)NCc2ccc(Cl)cc2)c(=O)c2cc(C#CCCO)ccc21 [Example 3, N-(4-chlorobenzyl)-6-(4-hydroxy-1-butynyl)-1-methyl-4-oxo-1,4-dihydro-3-cinnolinecarboxamide] | 227 to 229 | 9800 |  | 
Cn1nc(C(=O)NCc2ccc(Cl)cc2)c(=O)c2cc(CO)ccc21 [Example 4, N-(4-chlorobenzyl)-6-(hydroxymethyl)-1-methyl-4-oxo-1,4-dihydro-3-cinnolinecarboxamide] | 203 to 205 | 16700 |  | 
Cn1nc(C(=O)NCc2ccc(Cl)cc2)c(=O)c2cc(CN3CCOCC3)ccc21 [Example 5, N-(4-chlorobenzyl)-1-methyl-6-(4-morpholinylmethyl)-4-oxo-1,4-dihydro-3-cinnolinecarboxamide] | 190 to 192 | 1200 |  | 
